The record followed here is patent US8551963B2, “Imidazolothiazole compounds and methods of use thereof” (Ambit Biosciences Corporation, priority 2008, dated 2013).

The series addresses CYP2C19 (Homo sapiens (Human), UniProt P33261). The series can be described thus: Time dependant inhibition in human liver microsomes, CYP2C19. In kind it is in vitro ADME. As to conditions: CYP2C19, 10 μM, pre-incubation 0-30 minutes. The protocol:
For each CYP isoform tested, 10 μM Compound I-1 was pre-incubated with pooled male and female human liver microsomes with NADPH in a 37° C. shaking water bath in duplicate to afford a final pre-incubation assay concentration of 100 mM KPO4/pH 7.4, 10 mM MgCl2, 2 mg/mL of human liver microsome (CellzDirect lot HLM HMMC-PL020) and 1 mM NADPH (Calbiochem). At each pre-incubation time point (0, 5, 10, 20, and 30 minutes) 20 μL was removed and placed in a second 96 well plate on ice. After all pre-incubation time points were collected 180 uL of additional human microsome liver preparation containing the appropriate CYP specific substrate at its Km concentration listed in Table 11 plus NADPH, was added to each time point. The samples were incubated for an additional 10 minutes in a 37° C. shaking water bath and then quenched with 75:25 acetonitrile (ACN):water containing the appropriate internal standards listed in Table 11. After brief mixing, the plate was centrifuged and the supernatant removed for analysis by LC/MS/MS (API 4000 Qtrap) for the formation of 6-hydroxy-testosterone (CYP3A4), 4-hydroxy-mephenyloin (CYP2C19), or 6-hydroxy-taxol (CYP2C8). […] Consistent with Example 5, Compound I-1 did inhibit CYP2C8-mediated metabolite formation at 10 μM, but not in a time dependent manner.

Sequence of CYP2C19 (P33261 whole entry, canonical isoform): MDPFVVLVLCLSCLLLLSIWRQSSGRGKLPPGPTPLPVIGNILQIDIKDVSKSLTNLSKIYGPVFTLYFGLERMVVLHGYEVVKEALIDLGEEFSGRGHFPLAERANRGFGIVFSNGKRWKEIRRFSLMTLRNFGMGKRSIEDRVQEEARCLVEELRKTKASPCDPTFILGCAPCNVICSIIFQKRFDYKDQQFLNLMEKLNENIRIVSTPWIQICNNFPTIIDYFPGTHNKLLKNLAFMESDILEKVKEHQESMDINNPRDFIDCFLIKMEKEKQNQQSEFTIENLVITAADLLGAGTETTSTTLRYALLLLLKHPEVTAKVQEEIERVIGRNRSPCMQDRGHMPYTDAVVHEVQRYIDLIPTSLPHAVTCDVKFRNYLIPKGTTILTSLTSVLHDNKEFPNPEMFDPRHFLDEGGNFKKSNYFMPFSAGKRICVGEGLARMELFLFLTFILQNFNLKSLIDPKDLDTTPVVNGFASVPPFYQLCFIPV

As to `CC(C)(CO)c1cc(NC(=O)Nc2ccc(-c3cn4c(n3)sc3cc(OCCN5CCOCC5)ccc34)cc2)no1` [Compound I-1, 1-[5-(2-hydroxy-1,1-dimethyl-ethyl)-isoxazol-3-yl]-3-{4-[7-(2-morpholin-4-yl-ethoxy)-benzo[d]imidazo[2,1-b]thiazol-2-yl]-phenyl}-urea], the Time dependant inhibition entry was “not a time dependant inhibitor”.
